Data: ChEMBL document CHEMBL1144073, “A cytotoxic triterpene saponin from the root bark of Aralia dasyphylla” (J Nat Prod, 1999)
Values after ≈ are worked out from the molar mass of the structure shown.

Experiments:
HeLa = experiment: Cytotoxicity against human HeLa S3 cells; assay type: functional, cell-based
KB = experiment: Cytotoxicity against human KB cells; assay type: functional, cell-based

Structure (SMILES) | IC50 (HeLa) [µg/mL] | IC50 (KB) [µg/mL]
CC1(C)CC[C@]2(C(=O)O[C@@H]3O[C@H](CO)[C@@H](O)[C@H](O)[C@H]3O)CC[C@]3(C)C(=CC[C@@H]4[C@@]5(C)CC[C@H](O[C@@H]6O[C@H](C(=O)O)[C@@H](O)[C@H](O[C@@H]7O[C@H](CO)[C@@H](O)[C@H](O)[C@H]7O)[C@H]6O[C@@H]6O[C@H](CO)[C@H](O)[C@H](O)[C@H]6O)C(C)(C)C5CC[C@]43C)[C@H]2C1 (stereo partly specified) | 0.02 (≈ 0.0179 µM) | 1.2 (≈ 1.07 µM)
Nc1ccn([C@@H]2O[C@H](CO)[C@@H](O)[C@@H]2O)c(=O)n1 [CYTARABINE] | 0.23 (≈ 0.946 µM) | 0.81 (≈ 3.33 µM)
O=c1[nH]cc(F)c(=O)[nH]1 [FLUOROURACIL] | 0.44 (≈ 3.38 µM) | 0.93 (≈ 7.15 µM)
